{"source": "patent US10485797B2", "about": "“Treatment of pemphigus” (Principia Biopharma Inc., priority 2014, dated 2019)", "key": {"[1]": {"settings": "cited from earlier work; for onset of effect / clinical response / time of maximal effect: pemphigus vulgaris"}, "[2]": {"settings": "ANCA-associated vasculitis, cited from earlier work"}, "[3]": {"settings": "cited from earlier work"}, "[4]": {"molecular_target": "T1, BTK (Canis lupus familiaris, UniProt A0A8I3P3Z9)", "T1 construct": "from tissue; host or cells: blood of the treated Doberman dog", "T1 sequence (A0A8I3P3Z9 1-664)": "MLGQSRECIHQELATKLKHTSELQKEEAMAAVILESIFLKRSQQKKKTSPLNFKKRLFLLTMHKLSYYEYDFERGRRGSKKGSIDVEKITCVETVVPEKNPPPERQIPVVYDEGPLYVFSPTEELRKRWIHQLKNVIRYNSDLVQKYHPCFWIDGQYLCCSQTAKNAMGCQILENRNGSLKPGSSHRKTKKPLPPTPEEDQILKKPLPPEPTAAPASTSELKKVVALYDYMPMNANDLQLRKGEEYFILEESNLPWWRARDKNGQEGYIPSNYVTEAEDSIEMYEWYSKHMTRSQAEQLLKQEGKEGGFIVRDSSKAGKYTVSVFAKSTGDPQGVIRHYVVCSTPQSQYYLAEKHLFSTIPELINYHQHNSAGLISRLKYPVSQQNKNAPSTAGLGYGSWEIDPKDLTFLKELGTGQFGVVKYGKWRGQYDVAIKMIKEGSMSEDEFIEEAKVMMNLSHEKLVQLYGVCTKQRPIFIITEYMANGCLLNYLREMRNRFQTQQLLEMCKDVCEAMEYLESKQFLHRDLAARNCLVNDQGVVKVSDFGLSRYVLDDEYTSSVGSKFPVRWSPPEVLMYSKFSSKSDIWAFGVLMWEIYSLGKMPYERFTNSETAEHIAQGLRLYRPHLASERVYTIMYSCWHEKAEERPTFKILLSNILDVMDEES", "experiment": "BTK occupancy in blood of the treated dog", "type": "in vivo", "settings": "30 kg Doberman dog, oral 500 mg daily; blood taken 24 hours after the first dose; read-out: level of BTK occupancy 24 hours after each dose"}, "[5]": {"test_system": "pemphigus folliaceus", "experiment": "Dog Pemphigus Foliaceus Study", "type": "in vivo", "settings": "for overall efficacy and safety in treatment of PF: single agent", "description": "A 30 kg Doberman dog with a characteristic first presentation of pemphigus folliaceus on the nose and paws was administered an oral dose of 500 mg daily of the BTK inhibitor (R,E)-2-(3-(4-amino-3-(2-fluoro-4-phenoxyphenyl)-1H-pyrazolo[3,4-d]-pyrimidin-1-yl)piperidine-1-carbonyl)-4,4-dimethylpent-2-enenitrile instead of the usual treatment for pemphigus of high dose corticosteroids (typically 1-2 mg/kg).\nThe dog responded clinically to the drug as a monotherapy within three days, with improved eating and ambulation noted by the owner."}}, "note": "Like-named read-outs stand apart in the source and are kept apart here.", "data": [{"compound": "Rituximab: anti-CD20 antibody rituximab, approved for treatment of B cell malignancies", "values": [{"measurement": "side effects in treated patients", "setting": "[1]; patients treated with rituximab", "value": "serious side effects such as pneumonia"}, {"measurement": "onset of effect / clinical response", "setting": "[1]", "value": "Rituximab has delayed effect in pemphigus"}, {"measurement": "time of maximal effect", "setting": "[1]", "value": "vulgaris with maximal effect at 8-12 weeks"}, {"measurement": "onset of effect / clinical response", "setting": "[1]; listed as rituximab", "value": "significant delay in clinical response"}, {"measurement": "time of maximal effect", "setting": "[1]; listed as rituximab", "value": "8-12 weeks"}, {"measurement": "cases achieving remission", "setting": "[2]; despite concomitant use of corticosteroids for 5 months", "value": "in only 64% of cases despite concomitant use"}, {"measurement": "onset of effect", "setting": "[2]", "value": "Rituximab has delayed effect in ANCA-"}]}, {"compound": "Belimumab: an anti-Blys antibody", "values": [{"measurement": "patients able to reduce corticosteroid use to <7.5 mg of prednisone", "setting": "[3]; chronic SLE, week 40-52", "value": "≤ 21% of patients (Benlysta US Product"}, {"measurement": "effect on improvement of chronic SLE", "setting": "[3]", "value": "modest and delayed effect on improvement"}]}, {"compound": "CC(C)(C)/C=C(\\C#N)C(=O)N1CCC[C@@H](n2nc(-c3ccc(Oc4ccccc4)cc3F)c3c(N)ncnc32)C1", "note": "[(R,E)-2-(3-(4-amino-3-(2-fluoro-4-phenoxyphenyl)-1H-pyrazolo[3,4-d]-pyrimidin-1-yl)piperidine-1-carbonyl)-4,4-dimethylpent-2-enenitrile]", "values": [{"measurement": "receptor occupancy at 500 mg", "setting": "[4]", "value": "~70", "unit": "%"}, {"measurement": "manifestation of clinical response compared with systemic corticosteroid therapy", "setting": "[5]; dog PF", "value": "as rapid and comparable to that observed with systemic corticosteroid therapy"}, {"measurement": "corticosteroid-like adverse effects (polyuria, polydipsia, polyphagia or weight gain)", "setting": "[5]; dog PF, oral 500 mg daily", "value": "none and No well-known corticosteroid-like adverse effects"}, {"measurement": "skin lesions by four weeks", "setting": "[5]; dog PF, oral 500 mg daily, four weeks", "value": "completely healed"}, {"measurement": "time to clinical response (improved eating and ambulation)", "setting": "[5]; dog PF, oral 500 mg daily, monotherapy", "value": "three"}, {"measurement": "clinical status at one week follow up visit", "setting": "[5]; dog PF, oral 500 mg daily, one week", "value": "improved general health and commencement of pemphigus lesion healing"}, {"measurement": "clinical status after two weeks of treatment", "setting": "[5]; dog PF, oral 500 mg daily, two weeks", "value": "general health of the dog was excellent and skin lesions continued to improve"}, {"measurement": "overall efficacy and safety in treatment of PF", "setting": "[5]", "value": "effective and safe"}, {"measurement": "overall efficacy and safety in treatment of PF", "setting": "[5]; listed as (R, E)-2-(3-(4-amino-3-(2-fluoro-4-phenoxyphenyl)-1H-pyrazolo[3,4-d]-pyrimidin-1))", "value": "rapidly control dog PF"}]}]}
